Data set [1] can be described thus: Triplet lifetimes by nanosecond laser flash photolysis, excitation at 355 nm. Format: physicochemical. The conditions noted are these: triplet lifetime in aerated ethanol.
Data set [2] concerns HT-29 (human colon carcinoma) cells. The experiment in a line: In vitro phototoxicity, resazurin cell viability after irradiation at 749 nm. Format: cell-based. Particulars: light dose 1 J/cm^2 at 749 nm, 24 h incubation.
Data set [3] can be described thus: Absorption spectra / molar absorption coefficients (Beer-Lambert) in ethanol. The conditions noted are these: for ε/10^3: infrared absorption maximum. Format: physicochemical.
The nature of data set [4]: Singlet oxygen quantum yield in ethanol (phosphorescence at 1270 nm, phenalenone reference). Format: physicochemical. Particulars: aerated ethanol.
The conditions of data set [5]: photodecomposition quantum yield, aerated methanol:PBS (3:2), 749 nm, 640 mW.
The test system of data set [6] is CT26 (mouse colon carcinoma) cells. The experiment in a line: In vitro phototoxicity, resazurin cell viability after irradiation at 749 nm. Format: cell-based. Background: Resazurin is reduced to fluorescent resorufin, in cell work by metabolically active cells.
A further data set has as its system subcutaneous CT26 tumor. Kind of data set: Vascular-PDT of subcutaneous CT26 tumor in BALB/c mice with enriched atropisomer compositions (Example 7). Format: in vivo. The conditions noted are these: nominal 0.7 mg/kg i.v., 15 min later 55 J on 1.33 cm^2.
For data set [7] the following is noted: in ethanol, reference; cited from earlier work.
Where [8] appears, read: light dose 1 J/cm^2 at 749 nm, extrapolated from non-linear regression curve.
The mark [9] stands for this setting: light dose 1 J/cm^2 at 749 nm, 24 h incubation.

For `CNS(=O)(=O)c1ccc(F)c(-c2c3nc(c(-c4c(F)ccc(S(=O)(=O)NC)c4F)c4ccc([nH]4)c(-c4c(F)ccc(S(=O)(=O)NC)c4F)c4nc(c(-c5c(F)ccc(S(=O)(=O)NC)c5F)c5ccc2[nH]5)CC4)CC3)c1F` (single isomer, unassigned) [LUZ11-A], in data set [1], the “τT (air)” value came to 257 ± 7 ns. Further, the IC50 (usually the concentration needed to halve the response being measured) in data set [2] is 0.343 µM; in data set [6] (light dose 1 J/cm^2, Table 1, extrapolated from non-linear regression curve), 67.3 µM; in data set [6] (setting [8]), 67.3 µM. In addition, the figures for the IC90 in data set [2] and in data set [6] (setting [8]) were 1.01 µM and 2830 µM, respectively. In data set [3], this compound registered a λmax of 743 nm. Moreover, the “ε/10^3” value in data set [3] was 126 M^−1 cm^−1. The compound further displayed a ΦΔ in data set [4] of 0.39. In addition, the “ΦPD/10^−6” value in data set [5] was 15.

In the case of `CNS(=O)(=O)c1ccc(F)c(-c2c3nc(c(-c4c(F)ccc(S(=O)(=O)NC)c4F)c4ccc([nH]4)c(-c4c(F)ccc(S(=O)(=O)NC)c4F)c4nc(c(-c5c(F)ccc(S(=O)(=O)NC)c5F)c5ccc2[nH]5)CC4)CC3)c1F` (single isomer, unassigned) [LUZ11-B], the “τT (air)” value in data set [1] came out at 296 ± 33 ns. Further, the IC50 in data set [2] is 0.178 µM; in data set [6] (light dose 1 J/cm^2, Table 1), 1.46 µM; in data set [6] (setting [9]) it was 1.46 µM. Further, the results for the 90% effect concentration (IC90) in data set [2] and in data set [6] (setting [8]) were 0.433 µM and 7.53 µM, respectively. Besides, the λmax in data set [3] came out at 743 nm. Moreover, in data set [3], the “ε/10^3” value worked out at 137 M^−1 cm^−1. The compound further had a ΦΔ in data set [4] of 0.35. Besides, the “ΦPD/10^−6” value in data set [5] is listed as 15.

Take `CNS(=O)(=O)c1ccc(F)c(-c2c3nc(c(-c4c(F)ccc(S(=O)(=O)NC)c4F)c4ccc([nH]4)c(-c4c(F)ccc(S(=O)(=O)NC)c4F)c4nc(c(-c5c(F)ccc(S(=O)(=O)NC)c5F)c5ccc2[nH]5)CC4)CC3)c1F` [LUZ11]: in data set [2], inhibition was half-maximal at 0.367 µM (IC50) and the IC90 (usually the concentration needed for an effect of 90%) was 0.588 µM. In data set [6] (setting [9]), this compound came in with an IC50 of 0.871 µM and an IC90 of 4.31 µM. In the data set with subcutaneous CT26 tumor, the “long-term cures (tumor-free 60 days after the treatment)” value is “not possible to obtain long-term cures” and the median survival time stood at 20 days.

Regarding `O=C1C=Cc2cccc3cccc1c23` [phenalenone], the “singlet oxygen quantum yield ΦΔ (literature value)” value in data set [7] is on record as 0.95.

Turning to `CNS(=O)(=O)c1ccc(F)c(-c2c3nc(c(-c4c(F)ccc(S(=O)(=O)NC)c4F)c4ccc([nH]4)c(-c4c(F)ccc(S(=O)(=O)NC)c4F)c4nc(c(-c5c(F)ccc(S(=O)(=O)NC)c5F)c5ccc2[nH]5)CC4)CC3)c1F` [sample X], in the data set on subcutaneous CT26 tumor, the “long-term cures (tumor-free 60 days after the treatment)” value was “absence of long-term cures”, the median survival time was 18 days and the “median survival time shorter than with the LUZ11 sample” value is listed as 2 days.

The record behind these values is US11484593B2, “Atropisomers of halogenated tetraphenylbacteriochlorins and chlorins and their use in photodynamic therapy” (LUZITIN, S.A., priority 2015, dated 2022).
